Test results taken from PubChem BioAssay (NCI).
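The concentration for 50% growth inhibition is given as GI50. The concentration for full growth arrest is given as TGI.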

What was measured:
Assay in all cases: NCI tumour cell line growth inhibition, 384-well format
A549 NSCLC = system: A549 NSCLC
BT-549 breast = system: BT-549 breast
HS 578T breast = system: HS 578T breast
DU-145 prostate = system: DU-145 prostate
CAKI-1 renal = system: CAKI-1 renal
HOP-62 NSCLC = system: HOP-62 NSCLC
ACHN renal = system: ACHN renal
UACC-257 melanoma = system: UACC-257 melanoma
SF-539 CNS = system: SF-539 CNS
OVCAR-5 ovarian = system: OVCAR-5 ovarian
SNB-19 CNS = system: SNB-19 CNS
MDA-MB-468 breast = system: MDA-MB-468 breast
SR leukemia = system: SR leukemia
OVCAR-4 ovarian = system: OVCAR-4 ovarian
NCI-H23 lung = system: NCI-H23 lung
NCI-H460 NSCLC = system: NCI-H460 NSCLC
NCI-H522 lung = system: NCI-H522 lung
HL-60(TB) leukemia = system: HL-60(TB) leukemia
MDA-MB-435 melanoma = system: MDA-MB-435 melanoma
LOX IMVI melanoma = system: LOX IMVI melanoma
RPMI-8226 leukemia = system: RPMI-8226 leukemia
HOP-92 NSCLC = system: HOP-92 NSCLC
EKVX NSCLC = system: EKVX NSCLC
SK-OV-3 ovarian = system: SK-OV-3 ovarian
RXF 393 renal = system: RXF 393 renal
HCT-116 colon = system: HCT-116 colon
MALME-3M melanoma = system: MALME-3M melanoma
SN12C renal = system: SN12C renal
SF-268 CNS = system: SF-268 CNS
MCF7 breast = system: MCF7 breast
HT29 colon = system: HT29 colon
NCI-H226 lung = system: NCI-H226 lung
SNB-75 CNS = system: SNB-75 CNS
KM12 colon = system: KM12 colon
SF-295 CNS = system: SF-295 CNS
SK-MEL-5 melanoma = system: SK-MEL-5 melanoma
786-0 renal = system: 786-0 renal
UO-31 renal = system: UO-31 renal
NCI-H322M lung = system: NCI-H322M lung
HCT-15 colon = system: HCT-15 colon
T-47D breast = system: T-47D breast
SK-MEL-28 melanoma = system: SK-MEL-28 melanoma
OVCAR-3 ovarian = system: OVCAR-3 ovarian
TK-10 renal = system: TK-10 renal
NCI/ADR-RES ovarian = system: NCI/ADR-RES ovarian
COLO 205 colon = system: COLO 205 colon
A498 renal = system: A498 renal
M14 melanoma = system: M14 melanoma
MOLT-4 leukemia = system: MOLT-4 leukemia
U251 glioblastoma = system: U251 glioblastoma
IGROV1 ovarian = system: IGROV1 ovarian
UACC-62 melanoma = system: UACC-62 melanoma
PC-3 prostate = system: PC-3 prostate
HCC-2998 colon = system: HCC-2998 colon

## CO[C@H]1C(=O)[C@]2(C)[C@@H](OC)C[C@H]3OC[C@@]3(OC(C)=O)[C@H]2[C@H](OC(=O)c2ccccc2)[C@]2(O)C[C@H](OC(=O)[C@H](O)[C@@H](NC(=O)OC(C)(C)C)c3ccccc3)C(C)=C1C2(C)C
A549 NSCLC
  GI50: < 10 nM
  TGI: > 55100 nM
BT-549 breast
  GI50: < 10 nM
  TGI: < 10 nM
HS 578T breast
  GI50: < 10 nM
  TGI: < 10 nM
DU-145 prostate
  GI50: < 10 nM
  TGI: < 10 nM
CAKI-1 renal
  GI50: < 13.1 nM
  TGI: > 69000 nM
HOP-62 NSCLC
  GI50: < 10 nM
  TGI: > 100000 nM
ACHN renal
  TGI: > 100000 nM
UACC-257 melanoma
  GI50: 32700 nM
  TGI: > 100000 nM
SF-539 CNS
  GI50: < 10 nM
OVCAR-5 ovarian
  GI50: < 10 nM
  TGI: > 100000 nM
SNB-19 CNS
  GI50: < 10 nM
  TGI: > 100000 nM
MDA-MB-468 breast
  GI50: < 10 nM
  TGI: < 10 nM
SR leukemia
  GI50: < 10 nM
  TGI: < 10 nM
OVCAR-4 ovarian
  GI50: < 10 nM
  TGI: 31300 nM
NCI-H23 lung
  GI50: < 10 nM
  TGI: > 100000 nM
NCI-H460 NSCLC
  GI50: < 10 nM
  TGI: < 10 nM
NCI-H522 lung
  GI50: < 10 nM
  TGI: < 10 nM
HL-60(TB) leukemia
  GI50: < 10 nM
  TGI: < 10 nM
MDA-MB-435 melanoma
  GI50: < 10 nM
  TGI: < 10 nM
LOX IMVI melanoma
  GI50: < 40.7 nM
  TGI: 22600 nM
RPMI-8226 leukemia
  GI50: < 10 nM
  TGI: < 10 nM
HOP-92 NSCLC
  GI50: 22200 nM
  TGI: > 100000 nM
EKVX NSCLC
  GI50: < 10 nM
  TGI: 39800 nM
SK-OV-3 ovarian
  GI50: < 10 nM
  TGI: > 100000 nM
RXF 393 renal
  GI50: < 10 nM
  TGI: < 10 nM
HCT-116 colon
  GI50: < 10 nM
  TGI: > 100000 nM
MALME-3M melanoma
  TGI: > 49200 nM
SN12C renal
  GI50: < 10 nM
  TGI: > 100000 nM
SF-268 CNS
  TGI: > 62600 nM
MCF7 breast
  GI50: < 10 nM
  TGI: > 61500 nM
HT29 colon
  GI50: < 10 nM
  TGI: < 10 nM
NCI-H226 lung
  GI50: < 10 nM
  TGI: 18500 nM
SNB-75 CNS
  GI50: < 10 nM
KM12 colon
  GI50: < 10 nM
  TGI: > 100000 nM
SF-295 CNS
  GI50: < 10 nM
SK-MEL-5 melanoma
  GI50: < 10 nM
  TGI: < 10 nM
786-0 renal
  GI50: < 10 nM
  TGI: > 78800 nM
UO-31 renal
  GI50: < 12.8 nM
  TGI: > 100000 nM
NCI-H322M lung
  TGI: > 100000 nM
HCT-15 colon
  GI50: < 10 nM
  TGI: > 100000 nM
T-47D breast
  GI50: < 10 nM
  TGI: 89000 nM
SK-MEL-28 melanoma
  GI50: > 100000 nM
  TGI: > 100000 nM
OVCAR-3 ovarian
  GI50: < 10 nM
TK-10 renal
  GI50: < 10 nM
  TGI: > 100000 nM
NCI/ADR-RES ovarian
  GI50: 18.9 nM
  TGI: 54.8 nM
COLO 205 colon
  GI50: < 10 nM
  TGI: < 10 nM
A498 renal
  GI50: < 10 nM
  TGI: 44200 nM
M14 melanoma
  GI50: < 10 nM
  TGI: > 100000 nM
MOLT-4 leukemia
  GI50: < 10 nM
  TGI: < 10 nM
U251 glioblastoma
  GI50: < 10 nM
  TGI: 21200 nM
IGROV1 ovarian
  GI50: < 10 nM
  TGI: > 100000 nM
UACC-62 melanoma
  GI50: < 10 nM
  TGI: > 49700 nM
PC-3 prostate
  GI50: < 10 nM
  TGI: > 80500 nM
HCC-2998 colon
  GI50: < 10 nM
  TGI: < 10 nM
